Assay results published in patent US8697685B2, “Chemical compounds” (GlaxoSmithKline LLC, priority 2008, dated 2014).

Experiments:
full length PDK1 [1] = target: T1, full length PDK1 (Homo sapiens, UniProt O15530); experiment: Scintillation Proximity (LEADseeker) kinase assay of purified hPDK1 using biotinylated-PDKtide peptide; format: biochemical; conditions: in at least one experimental run; PDKtide substrate; read-out: IC50 against full length PDK1 using the PDKtide substrate assay
T1 construct: Full-length human 3-Phosphoinositide Dependent protein Kinase-1; made in house; host or cells: baculovirus / Sf9 insect cells
T1 sequence (O15530 1-556): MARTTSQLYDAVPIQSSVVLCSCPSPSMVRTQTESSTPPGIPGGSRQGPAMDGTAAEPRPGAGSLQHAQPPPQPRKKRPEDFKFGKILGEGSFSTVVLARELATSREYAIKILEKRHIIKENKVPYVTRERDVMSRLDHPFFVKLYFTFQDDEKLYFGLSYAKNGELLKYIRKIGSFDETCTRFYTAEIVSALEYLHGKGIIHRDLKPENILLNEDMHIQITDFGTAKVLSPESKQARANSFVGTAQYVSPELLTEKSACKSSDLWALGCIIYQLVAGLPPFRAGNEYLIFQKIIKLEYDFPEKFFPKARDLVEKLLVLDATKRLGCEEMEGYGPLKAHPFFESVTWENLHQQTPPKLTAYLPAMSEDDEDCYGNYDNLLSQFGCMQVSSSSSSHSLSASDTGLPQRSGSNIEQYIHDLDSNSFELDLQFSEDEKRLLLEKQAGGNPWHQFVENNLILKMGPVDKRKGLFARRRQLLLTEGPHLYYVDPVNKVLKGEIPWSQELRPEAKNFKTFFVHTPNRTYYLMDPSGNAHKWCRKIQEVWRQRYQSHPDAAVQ
Experimental: (§1) Full-length human 3-Phosphoinositide Dependent protein Kinase-1 (hPDK1; National Center for Biotechnology Information (NCBI) accession number AAH39158.1 with a MetGlyHis6 N-terminal addition) is purified from baculovirus expression in Sf9 cells. Purity of approximately 80% is achieved by the use of chelation chromatography (Ni-NTA Superflow) and desalting columns. Samples, in 25 mM HEPES, 150 mM NaCl, 2.5 mM DTT, 0.05% Triton, 30% glycerol, pH 8.0, are stored at −80° C. until use.
The 39 amino acid biotinylated-PDKtide peptide Seq. ID No. 1: (Biotin-Ahx-[…]) was custom synthesized by 21st Century Biochemicals. The peptide was >95% pure and dissolved in HPLC grade water to give a final concentration of 1.1 mM. The concentration was confirmed by quantitative amino acid analysis.
(§2) Scintillation Proximity (LEADseeker) Kinase Assay of Purified hPDK1 using Biotinylated-PDKtide Peptide:
(§3) Assays are performed in 384-well microtiter plates (Greiner, Catalog No. 784075). The reaction volume (10 μl) contains, in final concentrations, 25 mM MOPS (pH 7.5), 10 mM MgCl2, 50 mM KCl, 0.1 mg/ml BSA, 1 μM ATP, 3 uCi/ml ^33PγATP, 5 mM DTT, 0.5 mM CHAPS, 1 μM biotinylated-PDKtide peptide, and 0.5 nM hPDK1.
Compounds, titrated in DMSO, are evaluated at eleven concentrations ranging from 25 μM to 0.4 pM. […] No effect on activity relative to controls without DMSO is observed for hPDK1 at these DMSO amounts. hPDK1 is pre-incubated, 30 minutes at room temperature, with compounds before initiating phosphorylation of biotinylated-PDKtide peptide by addition of substrate to hPDK1/compound. Reactions are stopped after 4 hours at room temperature by the addition of 50 mM EDTA, 5 mg/ml LEADseeker beads (GE Healthcare) in PBS (10 ul). Beads are allowed to settle overnight, and samples are imaged on Viewlux (PerkinElmer).
(§4) The data for compound concentration responses were plotted as % Inhibition, calculated with the data reduction formula 100*(1−[(U1−C2)/(C1−C2)]), versus concentration of compound, where
(§5) Data were fitted to the curve described by:
The results for each compound were recorded as pIC50 calculated as follows: […]

full length PDK1 [2] = target: T1, full length PDK1; experiment: PDK1 enzyme assays (substrate phosphorylation: LEADseeker scintillation proximity, TR-FRET, PDKtide); format: biochemical; conditions: in at least one experimental run, read-out: IC50 against full length PDK1
Experimental: Substrate phosphorylation assays are carried out as follows:
Biotinylated-hAKT1: Human AKT1 (containing amino acid residues 136-480, as annotated by National Center for Biotechnology Information (NCBI) accession number AAL55732.1, with a MetLysLysHis6 N-terminal addition) is purified to >90% from lysate of baculovirus expression by Nickel Chelating ProBond resin (InVitrogen), Q-Sepharose Fast Flow, and Superdex 200 size exclusion chromatography. Biotinylation is achieved using EZ-Link Sulfo-NHS-LC Biotin (Pierce). Samples, in 25 mM HEPES, pH 7.5, 200 mM NaCl, 2 mM DTT, and 30% glycerol are stored at −80C until use.
as §1
The 39 amino acid biotinylated-PDKtide peptide Seq. ID No. 1: (Biotin-Ahx-[…]) was custom synthesized by 21st Century Biochemicals. […] The concentration was confirmed by quantitative amino acid analysis.
Scintillation Proximity (LEADseeker) Kinase Assay of Purified hPDK1:
as §3, with “DTT, 1” for “DTT, 0.5”, “mM CHAPS or 0.05% Tween20, 0.35” for “mM CHAPS, 1”, “μM AKT1 biotinylated protein,” for “μM biotinylated-PDKtide peptide,”, “and 10” for “and 0.5”
Compounds, titrated in DMSO, are evaluated at eleven concentrations ranging from 50 μM to 2 μM. […] Reactions are stopped after 3 hours at room temperature by the addition of 50 mM EDTA, 5 mg/ml LEADseeker beads (GE Healthcare) in PBS (10 ul). Beads are allowed to settle overnight, and samples are imaged on Viewlux (PerkinElmer).
as §4, §5
TR-FRET Kinase Assay of Purified hPDK1:
Assays are performed in 384-well microtiter plates (Greiner, Catalog No. 784076).
As previously described for the Scintillation Proximity protocol, hPDK1 is pre-incubated (30 minutes at room temperature) with compounds before initiating phosphorylation of AKT1 by addition of substrate to the hPDK1 and compound mix. Reactions are stopped after 4-6 hours at room temperature by the addition to final concentrations of 0.02 M EDTA, 0.0875 μM Streptavidin APC (PerkinElmer), 0.03 μM AKT1 (phospho T308) antibody (Abcam Inc.), 0.00375 μM Lance Eu-labeled anti rabbit IgG Antibody (PerkinElmer). Antibody binding reaches equilibrium in 30 minutes before signal is read on an EnVision™ 2103 Multilabel Reader (PerkinElmer). APC Signals are normalized to Europium signal. Data processing is the same as described for the Scintillation Proximity assay with the exception of the generation of the “C2” control by addition of buffer without hPDK1 to control wells at t=0 instead of EDTA.
as §2, §3
Compounds, titrated in DMSO, are evaluated at eleven concentrations ranging from 25 μM to 0.4 pM. […] Reactions are stopped after 4 hours at room temperature by the addition of 50 mM EDTA, 5 mg/ml LEADseeker beads (GE Healthcare) in PBS (10 ul).

[3] = tested on: AKT phosphorylation at T308 in PC-3 cells; experiment: Phospho-AKT (T308) ELISA in PC3 cells; format: cell-based; conditions: Homo sapiens, 6 hours compound treatment, in at least one experimental run, read-out: IC50 for inhibition of AKT phosphorylation at T308 in PC-3 cells
Experimental: Phospho-AKT (S473, T308, Total AKT) and phospho-RSK ELISA
PC3 cells (ATCC, Manassas, Va.) were plated in 96-well flat bottom plates (Corning, Lowell, Mass.) at a density of 15,000 cells/well in RPMI 1640 medium supplemented with 10% FBS. Cells were incubated at 37° C., 5% CO2 for 18-20 h. Compounds (dissolved in 100% DMSO) were diluted in an 11-point 3-fold dilution in DMSO. Compound dilution stocks were further diluted in RPMI 1640 with 10% FBS and added to each cell well. DMSO without compound was used in control wells. Final concentration of DMSO in each well was 0.15%. After 6 hours at 37° C. cells were washed with cold PBS (without calcium or magnesium) and lysed in lysis buffer (Meso Scale Discovery, Gaithersburg, Md.) supplemented with 1 protease inhibitor tablet/10 ml (Roche, Indianapolis, Ind.), 10 mM NaF, and 200 μl/10 ml Sigma phosphatase inhibitor 1 & 2 (Sigma Aldrich, St Louis, Mo.) for 30 min at 4° C. All washes were performed on a Bio Tek ELx405 plate washer (Bio Tek Instruments, Winooski, Vt.).
ELISA plates (Meso Scale Discovery; AKT Duplex, cat. N41100B-1; phospho AKT, cat. N411CAB-1; RSK, cat. N41ZB-1) were prepared by the addition of blocking buffer (3% Blocker A diluted in wash buffer (Meso Scale Discovery) for AKT duplex assay and phospho AKT assays; 5% Blocker A/1% Blocker B in Tris-buffered saline for RSK) for 1 hour and washed with wash buffer. Lysates were transferred to assay wells and incubated overnight at 4° C. Following washing with wash buffer, detection buffer (1% Blocker A in wash buffer for AKT duplex and phospho AKT or 1% Blocker A in TBS for RSK) with appropriate antibodies was added. Detection of AKT duplex and phospho AKT was carried out using a sulfo-tagged detection antibodies (Meso Scale Discovery). Detection of phospho-RSK was carried out sequentially with anti phospho-RSK1 (S221)/RSK2 (S227) (R&D systems, Minneapolis, Minn., cat. AF892) and goat anti-rabbit sulfo-tag antibody (cat R32AB-1; Meso Scale Discovery). Plates were incubated for 1 hour at room temperature and washed with wash buffer. Plates were read on a SECTOR™ Imager 6000 (Meso Scale Discovery) using Workbench software (Meso Scale Discovery) following addition of read buffer (Meso Scale Discovery) to each well. For analysis, phospho-AKT (S473) signals were normalized to total AKT, while phospho-AKT (T308) and phospho-RSK signals were analyzed without normalization. All values were expressed as percent of the DMSO-treated controls. IC50s were determined from inhibition curves using XLfit4 software (IDBS, Guildford, UK).

`Nc1nc(NC2(Cc3ccccc3)CC2)cc(-c2ccc3c(N)n[nH]c3c2)n1` [Example 61, 6-(3-Amino-1H-indazol-6-yl)-N^4-[1-(phenylmethyl)cyclopropyl]-2,4-pyrimidinediamine] gave an IC50 (full length PDK1 [1]) of 10 nM and an IC50 (full length PDK1 [2]) of less than 100 nM.
In the case of `CC[C@@H]1CO[C@H](C(=O)NC2CCCCC2)CN1c1cc(-c2ccc3c(N)n[nH]c3c2)nc(N)n1` [Example 173, (2S,5R)-4-[2-Amino-6-(3-amino-1H-indazol-6-yl)-4-pyrimidinyl]-N-cyclohexyl-5-ethyl-2-morpholinecarboxamide], the IC50 (full length PDK1 [1]) is reported as 7.9 nM and the IC50 (full length PDK1 [2]) is reported as less than 20 nM.
`CC[C@@H]1COCCN1c1cc(-c2ccc3c(N)n[nH]c3c2)nc(NC)n1` [Example 177, 6-[6-[(3R)-3-Ethyl-4-morpholinyl]-2-(methylamino)-4-pyrimidinyl]-1H-indazol-3-amine] showed an IC50 (full length PDK1 [1]) of 25 nM and an IC50 (full length PDK1 [2]) of less than 150 nM.
`COc1cc(-c2cc(N3C[C@H](C)C[C@@H](NC(=O)OC(C)(C)C)C3)nc(N)n2)cc2[nH]nc(N)c12` [Example 214, 1,1-Dimethylethyl((3R,5R)-1-[2-amino-6-[3-amino-4-(methyloxy)-1H-indazol-6-yl]-4-pyrimidinyl]-5-methyl-3-piperidinyl)carbamate] gave an IC50 (full length PDK1 [1]) of 2 nM and an IC50 (full length PDK1 [2]) of less than 50 nM.
`C[C@@H]1C[C@@H](N(C)C(=O)OC(C)(C)C)CN(c2cc(-c3ccc4c(N)n[nH]c4c3)nc(N)n2)C1` [Example 221, 1,1-Dimethylethyl{(3R,5R)-1-[2-amino-6-(3-amino-1H-indazol-6-yl)-4-pyrimidinyl]-5-methyl-3-piperidinyl}methylcarbamate] gave an IC50 (full length PDK1 [2]) of less than 50 nM and an IC50 [3] of less than 1000 nM.
